Reference: patent US12285435B2, “Multivesicular liposome formulations of dexamethasone” (Pacira Pharmaceuticals, Inc., priority 2021, dated 2025)

Tests used:
[1] = Pharmacokinetic study of subcutaneous DSP-MVL formulations vs bolus DSP in rats (dexamethasone plasma levels); assay type: in vivo; conditions: rat
Description: Pharmacokinetic (PK) studies of the subcutaneous dosing of DSP discussed herein were performed on rats where bolus DSP was compared to various formulations of DSP-MVLs at doses between 1.0 to 3.5 mg/kg for rats and at 0.5 mg/kg for beagles. Formulations 3AA, 5AA, 8AA, 11AA, 14AA, 4B, and 1C were diluted to 19-20% PPV from the initial PPV of about 30-45% with a final DSP concentration of approximately about 3 mg/mL to 3.5 mg/mL. Formulations 47-49 were not diluted, and the DSP concentration in the final product was approximately 7 mg/mL. In addition, PK studies of Formulation 18AA were performed on beagles through subcutaneous and epidural dosing of DSP of about 0.5 mg/kg.
Plasma samples were collected at different times points (0, 24, 48, 72, 96, 120, 144 and 168 hours post dose) for analysis. Blood samples were collected via the right saphenous vein using a 19-gauge needle prick or cardiac puncture for the final time point, placed into chilled tubes containing the appropriate anticoagulant, inverted several times to mix, protected from light, and kept on ice until centrifugation. A summary of the data in FIG. 1-6 is set forth below in Tables 1-2. For the rat studies, Cumulative % AUC is expressed as a percentage of the total AUC obtained in animals administered with Free DSP. For the dog studies, Cumulative % AUC is expressed as a percentage of the total AUC for each dog.
FIG. 1 is a line chart illustrating the dose normalized dexamethasone plasma levels obtained in rats as a function of time, following administration of several DSP-MVL formulations varying in internal pH (Formulations 47-49) as compared to DSP in a saline solution (“Free DSP Solution” Formulation).
FIG. 4 is a line chart illustrating the dose normalized dexamethasone plasma level obtained in rats as a function of time, following administration of two DSP-MVL formulations with and without triolein (Formulations 5AA and 3AA).
FIG. 5 is a line chart illustrating the dose normalized dexamethasone plasma levels obtained in rats as a function of time, following administration of several DSP-MVL formulations varying in lipid component concentrations (Formulations 4B and 1C).

[2] = DSP, rapid absorption into the blood stream; cited from earlier work
[3] = percentage of the total AUC obtained in animals administered with Free DSP

**Q.** With “dexamethasone sodium phosphate [Free DSP]” as the substance, how does the Tmax [1] read?
**A.** 1 h

**Q.** What about the AUC/dose ([1]; dose normalized) of the same substance?
**A.** 1182 ng·h/mL/mg/kg

**Q.** What about the “Cumulative AUC % at 7 days” value [1, 3] of the same substance?
**A.** 100%

**Q.** What about the “Cumulative AUC % at 14 days” value [1, 3] of the same substance?
**A.** 100%

**Q.** And the plasma half-life [2]?
**A.** ~3.33 h
